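Compound exposure: 48 hours, 5 concentrations, 96-well plates. TGI marks complete inhibition of growth.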
Columns and labels:
Test in all cases: NCI tumour cell line growth inhibition, 48 h
[1] = test system: U251 CNS
[2] = test system: PC-3 prostate
[3] = test system: HT29 colon
[4] = test system: MDA-MB-435
[5] = test system: SK-MEL-5 melanoma
[6] = test system: MOLT-4 leukemia
[7] = test system: HCT-15 colon
[8] = test system: SR leukemia
[9] = test system: LOX IMVI melanoma
[10] = test system: 786-0 renal
[11] = test system: NCI-H23 lung
[12] = test system: MDA-N
[13] = test system: NCI/ADR-RES ovarian
[14] = test system: TK-10 renal
[15] = test system: HCC-2998 colon
[16] = test system: ACHN renal
[17] = test system: MDA-MB-231 breast
[18] = test system: SF-268 CNS
[19] = test system: HS 578T breast
[20] = test system: SK-OV-3 ovarian
[21] = test system: HOP-92 NSCLC
[22] = test system: IGROV1 ovarian
[23] = test system: SF-295 CNS
[24] = test system: SW-620 colon
[25] = test system: MCF7 breast
[26] = test system: OVCAR-8 ovarian
[27] = test system: K-562 leukemia
[28] = test system: UO-31 renal
[29] = test system: SK-MEL-2 melanoma
[30] = test system: UACC-257 melanoma
[31] = test system: RXF 393 renal
[32] = test system: T-47D breast
[33] = test system: SK-MEL-28 melanoma
[34] = test system: SN12C renal
[35] = test system: COLO 205 colon
[36] = test system: BT-549 breast
[37] = test system: HOP-62 NSCLC
[38] = test system: A498 renal
[39] = test system: OVCAR-4 ovarian
[40] = test system: EKVX NSCLC
[41] = test system: NCI-H460 lung
[42] = test system: DU-145 prostate
[43] = test system: KM12 colon
[44] = test system: SNB-75 CNS
[45] = test system: M14 melanoma
[46] = test system: CCRF-CEM leukemia
[47] = test system: UACC-62 melanoma
[48] = test system: NCI-H522 lung
[49] = test system: CAKI-1 renal
[50] = test system: NCI-H226 lung
[51] = test system: SF-539 CNS
[52] = test system: RPMI-8226 leukemia
[53] = test system: SNB-19 CNS
[54] = test system: OVCAR-3 ovarian
[55] = test system: HCT-116 colon
[56] = test system: OVCAR-5 ovarian
[57] = test system: A549 NSCLC
[58] = test system: HL-60(TB) leukemia
[59] = test system: MALME-3M melanoma

Work on `C/C(O)=C(\C=N\C(N)=S)C(=O)Nc1ccccc1C` yielded a TGI [1] of over 100 µM, a TGI [2] of over 100 µM and a TGI [3] of over 100 µM. The TGI [4] was over 100 µM, the TGI [5] was over 100 µM and the TGI [6] was over 100 µM. The TGI [7] was over 100 µM, the TGI [8] was over 100 µM and the TGI [9] was over 100 µM. The TGI [10] was over 100 µM, the TGI [11] was over 100 µM and the TGI [12] was over 100 µM. The TGI [13] was over 100 µM, the TGI [14] was over 100 µM and the TGI [15] was over 100 µM. It also gave a TGI [16] of over 100 µM, a TGI [17] of over 100 µM and a TGI [18] of over 100 µM. For the same molecule, the TGI [19] was over 100 µM, the TGI [20] was over 100 µM and the TGI [21] was over 100 µM. It also gave a TGI [22] of over 100 µM, a TGI [23] of over 100 µM and a TGI [24] of over 100 µM. For the same molecule, the TGI [25] was over 100 µM, the TGI [26] was over 100 µM and the TGI [27] was over 100 µM. For the same molecule, the TGI [28] was over 100 µM, the TGI [29] was over 100 µM and the TGI [30] was over 100 µM. The TGI [31] was over 100 µM, the TGI [32] was over 100 µM and the TGI [33] was over 100 µM. The TGI [34] was over 100 µM, the TGI [35] was over 100 µM and the TGI [36] was over 100 µM. For the same molecule, the TGI [37] was over 100 µM, the TGI [38] was over 100 µM and the TGI [39] was over 100 µM. For the same molecule, the TGI [40] was over 100 µM, the TGI [41] was over 100 µM and the TGI [42] was over 100 µM. The TGI [43] was over 100 µM, the TGI [44] was over 100 µM and the TGI [45] was over 100 µM. The TGI [46] was over 100 µM, the TGI [47] was over 100 µM and the TGI [48] was over 100 µM. The TGI [49] was over 100 µM, the TGI [50] was over 100 µM and the TGI [51] was over 100 µM. For the same molecule, the TGI [52] was over 100 µM, the TGI [53] was over 100 µM and the TGI [54] was over 100 µM. It also gave a TGI [55] of over 100 µM, a TGI [56] of over 100 µM and a TGI [57] of over 100 µM.

With `C=CCC(CNC(=O)OCc1ccccc1)O[Si](C)(C)C(C)(C)C` (stereo not drawn) the TGI [1] was 79.5 µM, the TGI [2] was over 100 µM and the TGI [3] was 59.1 µM. It also gave a TGI [4] of over 100 µM, a TGI [5] of 31.8 µM and a TGI [6] of 70.1 µM. For the same molecule, the TGI [7] was over 100 µM, the TGI [8] was 46.4 µM and the TGI [9] was 47.1 µM. It also gave a TGI [10] of 98.7 µM, a TGI [11] of over 100 µM and a TGI [12] of over 100 µM. It also gave a TGI [13] of over 100 µM, a TGI [14] of over 100 µM and a TGI [15] of over 100 µM. For the same molecule, the TGI [16] was over 100 µM, the TGI [17] was 37 µM and the TGI [18] was over 100 µM. The TGI [19] was over 100 µM, the TGI [20] was over 100 µM and the TGI [21] was over 100 µM. The TGI [22] was 84.3 µM, the TGI [23] was over 100 µM and the TGI [24] was over 100 µM. For the same molecule, the TGI [25] was 57.7 µM, the TGI [26] was over 100 µM and the TGI [27] was over 100 µM. It also gave a TGI [28] of 63.1 µM, a TGI [29] of 34.9 µM and a TGI [30] of 83.7 µM. It also gave a TGI [31] of 47.6 µM, a TGI [32] of over 100 µM and a TGI [33] of over 100 µM. It also gave a TGI [34] of over 100 µM, a TGI [35] of 30.8 µM and a TGI [36] of over 100 µM. The TGI [37] was over 100 µM, the TGI [38] was over 100 µM and the TGI [39] was over 100 µM. The TGI [40] was 74.9 µM, the TGI [41] was over 100 µM and the TGI [42] was over 100 µM. For the same molecule, the TGI [43] was over 100 µM, the TGI [44] was over 100 µM and the TGI [45] was over 100 µM. The TGI [46] was over 100 µM, the TGI [47] was over 100 µM and the TGI [48] was 64.8 µM. The TGI [49] was over 100 µM, the TGI [50] was 85.8 µM and the TGI [51] was 93.2 µM. The TGI [52] was 64.9 µM, the TGI [53] was over 100 µM and the TGI [58] was 51.9 µM. It also gave a TGI [54] of over 100 µM, a TGI [55] of 73.7 µM and a TGI [56] of 71.6 µM. It also gave a TGI [57] of over 100 µM.

In the case of `CCOC(=O)c1nc2c3c(ncn2n1)Oc1c(c(-c2ccccc2)nn1-c1ccccc1)C3c1ccc(Cl)cc1` (stereo not drawn), the TGI [1] is reported as over 100 µM, the TGI [2] is reported as over 100 µM and the TGI [3] is reported as over 100 µM. It also gave a TGI [4] of over 100 µM, a TGI [5] of over 100 µM and a TGI [7] of over 100 µM. For the same molecule, the TGI [8] was over 100 µM, the TGI [9] was over 100 µM and the TGI [10] was over 100 µM. For the same molecule, the TGI [11] was over 100 µM, the TGI [12] was over 100 µM and the TGI [13] was over 100 µM. It also gave a TGI [14] of over 100 µM, a TGI [15] of over 100 µM and a TGI [16] of over 100 µM. The TGI [17] was over 100 µM, the TGI [18] was over 100 µM and the TGI [19] was over 100 µM. For the same molecule, the TGI [20] was over 100 µM, the TGI [21] was over 100 µM and the TGI [23] was over 100 µM. It also gave a TGI [24] of over 100 µM, a TGI [25] of over 100 µM and a TGI [26] of over 100 µM. For the same molecule, the TGI [27] was over 100 µM, the TGI [28] was over 100 µM and the TGI [29] was over 100 µM. For the same molecule, the TGI [30] was over 100 µM, the TGI [31] was over 100 µM and the TGI [32] was over 100 µM. For the same molecule, the TGI [33] was over 100 µM, the TGI [59] was over 100 µM and the TGI [34] was over 100 µM. For the same molecule, the TGI [35] was over 100 µM, the TGI [36] was over 100 µM and the TGI [37] was over 100 µM. It also gave a TGI [38] of over 100 µM, a TGI [39] of over 100 µM and a TGI [41] of over 100 µM. The TGI [42] was over 100 µM, the TGI [43] was over 100 µM and the TGI [44] was over 100 µM. It also gave a TGI [45] of over 100 µM, a TGI [46] of over 100 µM and a TGI [47] of over 100 µM. It also gave a TGI [48] of over 100 µM, a TGI [49] of over 100 µM and a TGI [50] of over 100 µM. It also gave a TGI [51] of over 100 µM, a TGI [52] of over 100 µM and a TGI [53] of over 100 µM. For the same molecule, the TGI [58] was over 100 µM, the TGI [54] was over 100 µM and the TGI [55] was over 100 µM. It also gave a TGI [56] of over 100 µM and a TGI [57] of over 100 µM.

`COC(=O)C1=C(O)C(C(=O)OC)[C@@]2(O)[C@@H](C(=O)OC)C(c3ccc(OC(=O)/C(=C/c4ccc(Cl)cc4)c4ccc(Cl)cc4)cc3)C[C@@H]1[C@@H]2C(=O)OC` (stereo partly drawn) gave a TGI [1] of over 100 µM, a TGI [2] of over 100 µM and a TGI [3] of over 100 µM. It also gave a TGI [4] of over 100 µM, a TGI [5] of over 100 µM and a TGI [6] of over 100 µM. It also gave a TGI [7] of over 100 µM, a TGI [8] of over 100 µM and a TGI [9] of 38.1 µM. For the same molecule, the TGI [10] was over 100 µM, the TGI [11] was over 100 µM and the TGI [12] was 51.9 µM. For the same molecule, the TGI [13] was over 100 µM, the TGI [14] was 73.7 µM and the TGI [16] was over 100 µM. The TGI [17] was 82.8 µM, the TGI [18] was over 100 µM and the TGI [19] was over 100 µM. The TGI [20] was over 100 µM, the TGI [21] was over 100 µM and the TGI [22] was over 100 µM. It also gave a TGI [23] of over 100 µM, a TGI [24] of over 100 µM and a TGI [25] of over 100 µM. The TGI [26] was over 100 µM, the TGI [27] was over 100 µM and the TGI [28] was 34.1 µM. For the same molecule, the TGI [29] was 38.2 µM, the TGI [30] was over 100 µM and the TGI [31] was over 100 µM. It also gave a TGI [32] of over 100 µM, a TGI [33] of over 100 µM and a TGI [59] of over 100 µM. For the same molecule, the TGI [34] was over 100 µM, the TGI [35] was 92.6 µM and the TGI [36] was over 100 µM. It also gave a TGI [37] of over 100 µM, a TGI [38] of over 100 µM and a TGI [39] of over 100 µM. For the same molecule, the TGI [40] was over 100 µM, the TGI [41] was over 100 µM and the TGI [42] was over 100 µM. For the same molecule, the TGI [43] was over 100 µM, the TGI [44] was over 100 µM and the TGI [45] was 41.8 µM. For the same molecule, the TGI [46] was over 100 µM, the TGI [47] was 24 µM and the TGI [48] was over 100 µM. The TGI [49] was 85.9 µM, the TGI [50] was 63.9 µM and the TGI [51] was 24.6 µM. It also gave a TGI [53] of over 100 µM, a TGI [58] of over 100 µM and a TGI [54] of over 100 µM. It also gave a TGI [55] of over 100 µM, a TGI [56] of over 100 µM and a TGI [57] of over 100 µM.

Source: PubChem BioAssay (NCI)
